# What was measured:
# 5-Fluorouracil = compound: O=c1[nH]cc(F)c(=O)[nH]1 [5-Fluorouracil]; conditions: max 20 µM
# Procedure, shortened: (§1)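 Cancer cell lines were dosed for 72 hours (final DMSO typically 0.2%) after 24 hours at 37°C and 5% CO2 in 1536-well plates containing 7.5 μl DMEM/F12 or RPMI with 10% FBS. Viability came from CellTiter-Glo 2.0 luminescence, scaled between blank-well and DMSO-well means, and dose responses were fitted to a two-parameter logistic curve with a non-linear mixed effects model. The single-agent IC50 was obtained from this fit.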
# Trametinib = compound: CC(=O)Nc1cccc(-n2c(=O)n(C3CC3)c(=O)c3c(Nc4ccc(I)cc4F)n(C)c(=O)c(C)c32)c1 [Trametinib]; conditions: max 1 µM
# Procedure, shortened: as §1
# AZD8186 = compound: C[C@@H](Nc1cc(F)cc(F)c1)c1cc(C(=O)N(C)C)cc2c(=O)cc(N3CCOCC3)oc12 [AZD8186]; conditions: max 10 µM
# Procedure, shortened: as §1
# Lapatinib = compound: CS(=O)(=O)CCNCc1ccc(-c2ccc3ncnc(Nc4ccc(OCc5cccc(F)c5)c(Cl)c4)c3c2)o1 [Lapatinib]; conditions: max 10 µM
# Procedure, shortened: as §1
# AZD1775 = compound: C=CCn1c(=O)c2cnc(Nc3ccc(N4CCN(C)CC4)cc3)nc2n1-c1cccc(C(C)(C)O)n1 [AZD1775]; conditions: max 3 µM
# Procedure, shortened: as §1
# MK-2206 = compound: NC1(c2ccc(-c3nc4ccn5c(=O)[nH]nc5c4cc3-c3ccccc3)cc2)CCC1 [MK-2206]; conditions: max 10 µM
# Procedure, shortened: as §1
# AZD0156 = compound: CN(C)CCCOc1ccc(-c2ccc3ncc4c(c3c2)n(C2CCOCC2)c(=O)n4C)cn1 [AZD0156]; conditions: max 3 µM
# Procedure, shortened: as §1
# AZD2811 = compound: CCN(CCO)CCCOc1ccc2c(Nc3cc(CC(=O)Nc4cccc(F)c4)[nH]n3)ncnc2c1 [AZD2811]; conditions: max 1 µM
# Procedure, shortened: as §1
# Doxorubicin = compound: COc1cccc2c1C(=O)c1c(O)c3c(c(O)c1C2=O)C[C@@](O)(C(=O)CO)C[C@@H]3O[C@H]1C[C@H](N)[C@H](O)[C@H](C)O1 [Doxorubicin]; conditions: max 1 µM
# Procedure, shortened: as §1
# AZD6738 = compound: C[C@@H]1COCCN1C2=NC(=NC(=C2)C3(CC3)[S@](=N)(=O)C)C4=C5C=CNC5=NC=C4 [AZD6738]; conditions: max 10 µM
# Procedure, shortened: as §1
# AZD7648 = compound: Cc1cc2ncnn2cc1Nc1ncc2c(n1)n(C1CCOCC1)c(=O)n2C [AZD7648]; conditions: max 10 µM
# Procedure, shortened: as §1
# SN-38 = compound: CCc1c2c(nc3ccc(O)cc13)-c1cc3c(c(=O)n1C2)COC(=O)[C@]3(O)CC [SN-38]; conditions: max 0.3 µM
# Procedure, shortened: as §1
# Selumetinib = compound: Cn1cnc2c(F)c(Nc3ccc(Br)cc3Cl)c(C(=O)NOCCO)cc21 [Selumetinib]; conditions: max 10 µM
# Procedure, shortened: as §1
# Prexasertib = compound: COc1cccc(OCCCN)c1-c1cc(Nc2cnc(C#N)cn2)n[nH]1 [Prexasertib]; conditions: max 1 µM
# Procedure, shortened: as §1
# AZD1390 = compound: CC(C)n1c(=O)n(C)c2cnc3cc(F)c(-c4ccc(OCCCN5CCCCC5)nc4)cc3c21 [AZD1390]; conditions: max 0.3 µM
# Procedure, shortened: as §1
# SRA737 = compound: N#Cc1cnc(Nc2cc(NC[C@H]3CNCCO3)c(C(F)(F)F)cn2)cn1 [SRA737]; conditions: max 10 µM
# Procedure, shortened: as §1
# Carboplatin = compound: C1CC(C1)(C(=O)[O-])C(=O)[O-].N.N.[Pt+2] [Carboplatin]; conditions: max 10 µM
# Procedure, shortened: as §1
# Savolitinib = compound: C[C@@H](c1ccc2nccn2c1)n1nnc2ncc(-c3cnn(C)c3)nc21 [Savolitinib]; conditions: max 1 µM
# Procedure, shortened: as §1
# AZD4320 = compound: CN(CC[C@H](CSC1=CC=CC=C1)NC2=C(C=C(C=C2)S(=O)(=O)NC(=O)C3=CC=C(C=C3)N4CCC(CC4)[C@H](C5=CC=CC=C5C6=CC=C(C=C6)Cl)O)S(=O)(=O)C(F)(F)F)CCO [AZD4320]; conditions: max 1 µM
# Procedure, shortened: as §1
# SG3199 = compound: CC1=CN2[C@@H](C1)C=NC3=CC(=C(C=C3C2=O)OC)OCCCCCOC4=C(C=C5C(=C4)N=C[C@@H]6CC(=CN6C5=O)C)OC [SG3199]; conditions: max 0.001 µM
# Procedure, shortened: as §1
# Venetoclax = compound: CC1(C)CCC(CN2CCN(c3ccc(C(=O)NS(=O)(=O)c4ccc(NCC5CCOCC5)c([N+](=O)[O-])c4)c(Oc4cnc5[nH]ccc5c4)c3)CC2)=C(c2ccc(Cl)cc2)C1 [Venetoclax]; conditions: max 1 µM
# Procedure, shortened: as §1
# Taselisib = compound: Cc1nc(-c2cn3c(n2)-c2ccc(-c4cnn(C(C)(C)C(N)=O)c4)cc2OCC3)n(C(C)C)n1 [Taselisib]; conditions: max 10 µM
# Procedure, shortened: as §1
# [1] = compound: O=C(Nc1ccc2[nH]nc(-c3ccncc3)c2c1)[C@@H]1CCN(CC(=O)N2CCN(c3ccc(-c4ncccn4)cc3)CC2)C1; conditions: max 5 µM
# Procedure, shortened: as §1
# Crizotinib = compound: C[C@@H](Oc1cc(-c2cnn(C3CCNCC3)c2)cnc1N)c1c(Cl)ccc(F)c1Cl [Crizotinib]; conditions: max 10 µM
# Procedure, shortened: as §1
# Paclitaxel = compound: CC(=O)O[C@H]1C(=O)[C@@]2(C)[C@H]([C@H](OC(=O)c3ccccc3)[C@]3(O)C[C@H](OC(=O)[C@H](O)[C@@H](NC(=O)c4ccccc4)c4ccccc4)C(C)=C1C3(C)C)[C@]1(OC(C)=O)CO[C@@H]1C[C@@H]2O [Paclitaxel]; conditions: max 3 µM
# Procedure, shortened: as §1
# Etoposide = compound: COc1cc([C@@H]2c3cc4c(cc3[C@@H](O[C@@H]3O[C@@H]5CO[C@@H](C)O[C@H]5[C@H](O)[C@H]3O)[C@H]3COC(=O)[C@H]23)OCO4)cc(OC)c1O [Etoposide]; conditions: max 10 µM
# Procedure, shortened: as §1
# Gefitinib = compound: COc1cc2ncnc(Nc3ccc(F)c(Cl)c3)c2cc1OCCCN1CCOCC1 [Gefitinib]; conditions: max 10 µM
# Procedure, shortened: as §1
# Alisertib = compound: COc1cc(Nc2ncc3c(n2)-c2ccc(Cl)cc2C(c2c(F)cccc2OC)=NC3)ccc1C(=O)O [Alisertib]; conditions: max 10 µM
# Procedure, shortened: as §1
# Gemcitabine = compound: Nc1ccn([C@@H]2O[C@H](CO)[C@@H](O)C2(F)F)c(=O)n1 [Gemcitabine]; conditions: max 0.3 µM
# Procedure, shortened: as §1
# AZD5991 = compound: Cc1c2c(nn1C)CSCc1cc(n(C)n1)CSc1cc(c3ccccc3c1)OCCCc1c(C(=O)O)n(C)c3c-2c(Cl)ccc13 [AZD5991]; conditions: max 1 µM
# Procedure, shortened: as §1
# Palbociclib = compound: CC(=O)c1c(C)c2cnc(Nc3ccc(N4CCNCC4)cn3)nc2n(C2CCCC2)c1=O [Palbociclib]; conditions: max 10 µM
# Procedure, shortened: as §1
# Olaparib = compound: O=C(c1cc(Cc2n[nH]c(=O)c3ccccc23)ccc1F)N1CCN(C(=O)C2CC2)CC1 [Olaparib]; conditions: max 10 µM
# Procedure, shortened: as §1
# Dasatinib = compound: CC1=C(C(=CC=C1)Cl)NC(=O)C2=CN=C(S2)NC3=CC(=NC(=N3)C)N4CCN(CC4)CCO [Dasatinib]; conditions: max 2 µM
# Procedure, shortened: as §1
# AZD5153 = compound: COc1nnc2ccc(N3CCC(c4ccc(OCCN5CCN(C)C(=O)[C@H]5C)cc4)CC3)nn12 [AZD5153]; conditions: max 1 µM
# Procedure, shortened: as §1
# AZD5363 = compound: C1CN(CCC1(C(=O)N[C@@H](CCO)C2=CC=C(C=C2)Cl)N)C3=NC=NC4=C3C=CN4 [AZD5363]; conditions: max 10 µM
# Procedure, shortened: as §1
Cell Line,"IC50, cell viability 72 h (5-Fluorouracil)","IC50, cell viability 72 h (Trametinib)","IC50, cell viability 72 h (AZD8186)","IC50, cell viability 72 h (Lapatinib)","IC50, cell viability 72 h (AZD1775)","IC50, cell viability 72 h (MK-2206)","IC50, cell viability 72 h (AZD0156)","IC50, cell viability 72 h (AZD2811)","IC50, cell viability 72 h (Doxorubicin)","IC50, cell viability 72 h (AZD6738)","IC50, cell viability 72 h (AZD7648)","IC50, cell viability 72 h (SN-38)","IC50, cell viability 72 h (Selumetinib)","IC50, cell viability 72 h (Prexasertib)","IC50, cell viability 72 h (AZD1390)","IC50, cell viability 72 h (SRA737)","IC50, cell viability 72 h (Carboplatin)","IC50, cell viability 72 h (Savolitinib)","IC50, cell viability 72 h (AZD4320)","IC50, cell viability 72 h (SG3199)","IC50, cell viability 72 h (Venetoclax)","IC50, cell viability 72 h (Taselisib)","IC50, cell viability 72 h [1]","IC50, cell viability 72 h (Crizotinib)","IC50, cell viability 72 h (Paclitaxel)","IC50, cell viability 72 h (Etoposide)","IC50, cell viability 72 h (Gefitinib)","IC50, cell viability 72 h (Alisertib)","IC50, cell viability 72 h (Gemcitabine)","IC50, cell viability 72 h (AZD5991)","IC50, cell viability 72 h (Palbociclib)","IC50, cell viability 72 h (Olaparib)","IC50, cell viability 72 h (Dasatinib)","IC50, cell viability 72 h (AZD5153)","IC50, cell viability 72 h (AZD5363)"
LK-2 (Squamous Cell Lung Carcinoma),> 20000 nM,349 nM,> 10000 nM,> 10000 nM,295 nM,> 10000 nM,> 3000 nM,55.1 nM,> 1000 nM,> 10000 nM,> 10000 nM,199 nM,> 10000 nM,137 nM,> 300 nM,> 10000 nM,> 10000 nM,> 1000 nM,> 1000 nM,> 1 nM,> 1000 nM,> 10000 nM,1930 nM,5710 nM,5.55 nM,9260 nM,> 10000 nM,60.6 nM,277 nM,> 1000 nM,> 10000 nM,> 10000 nM,> 2000 nM,> 1000 nM,> 10000 nM
MFE-280 (Endometrial Carcinoma),> 20000 nM,> 1000 nM,> 10000 nM,> 10000 nM,> 3000 nM,3590 nM,> 3000 nM,> 1000 nM,> 1000 nM,> 10000 nM,> 10000 nM,198 nM,> 10000 nM,> 1000 nM,> 300 nM,> 10000 nM,> 10000 nM,> 1000 nM,> 1000 nM,> 1 nM,> 1000 nM,177 nM,> 5000 nM,> 10000 nM,533 nM,7530 nM,> 10000 nM,4940 nM,> 300 nM,> 1000 nM,> 10000 nM,> 10000 nM,> 2000 nM,> 1000 nM,> 10000 nM
MKN45 (Gastric Carcinoma),> 20000 nM,59.9 nM,> 10000 nM,> 10000 nM,497 nM,5470 nM,> 3000 nM,> 1000 nM,544 nM,2730 nM,> 10000 nM,32.9 nM,5840 nM,19.7 nM,> 300 nM,3610 nM,> 10000 nM,13.1 nM,> 1000 nM,> 1 nM,> 1000 nM,6450 nM,821 nM,82.7 nM,43.5 nM,> 10000 nM,> 10000 nM,> 10000 nM,53.6 nM,> 1000 nM,9410 nM,> 10000 nM,> 2000 nM,719 nM,> 10000 nM
NB12 (Neuroblastoma),> 20000 nM,> 1000 nM,> 10000 nM,> 10000 nM,731 nM,7040 nM,> 3000 nM,342 nM,–,> 10000 nM,> 10000 nM,6.61 nM,> 10000 nM,–,> 300 nM,> 10000 nM,> 10000 nM,> 1000 nM,31.1 nM,–,333 nM,968 nM,> 5000 nM,9850 nM,15 nM,> 10000 nM,> 10000 nM,–,57.4 nM,> 1000 nM,> 10000 nM,> 10000 nM,> 2000 nM,217 nM,> 10000 nM
PC-3_[JPC-3] (Lung Adenocarcinoma),> 20000 nM,> 1000 nM,> 10000 nM,5120 nM,> 3000 nM,> 10000 nM,> 3000 nM,> 1000 nM,> 1000 nM,> 10000 nM,> 10000 nM,35.9 nM,> 10000 nM,> 1000 nM,> 300 nM,> 10000 nM,> 10000 nM,> 1000 nM,> 1000 nM,> 1 nM,> 1000 nM,> 10000 nM,> 5000 nM,> 10000 nM,416 nM,> 10000 nM,–,> 10000 nM,230 nM,> 1000 nM,> 10000 nM,> 10000 nM,853 nM,> 1000 nM,> 10000 nM
SK-MEL-2 (Melanoma),> 20000 nM,32.4 nM,> 10000 nM,> 10000 nM,> 3000 nM,> 10000 nM,> 3000 nM,> 1000 nM,–,> 10000 nM,> 10000 nM,> 300 nM,3990 nM,–,> 300 nM,> 10000 nM,> 10000 nM,> 1000 nM,> 1000 nM,–,> 1000 nM,> 10000 nM,716 nM,> 10000 nM,402 nM,> 10000 nM,> 10000 nM,–,> 300 nM,343 nM,> 10000 nM,> 10000 nM,> 2000 nM,345 nM,> 10000 nM

# Reference: the supplement of paper PMC11061612
